Data on one molecule can be found in US11845803B2, “Combination therapies for treatment of BCMA-related cancers and autoimmune disorders” (Fred Hutchinson Cancer Center, priority 2017, dated 2023).

SMILES strings stand for the structures.

Assay [1] has as its system CD138+ primary myeloma cells. Description: Surface BCMA and other surface molecules on primary patient myeloma cells incubated with GSI, flow cytometry. In kind it is cell-based, human. How it is done:
(N) Fold change in BCMA on primary myeloma cells (n=7) cultured with vary amounts of GSI for 4 h. Primary and cell lines were cultured at 0.5×10^6 cells/mL. Fold change in BCMA is defined as Treated (MFIBCMA-MFIiso)/Control (MFIBCMA-MFIiso). Data is representative of 3 independent experiments with T cells derived from different donors. […] (R) CD138+ primary myeloma cells were enriched from patient bone marrow samples, incubated for 3 hours in the presence of various concentrations of GSI RO429097 (0.01 μM to 10 μM) and evaluated for surface BCMA expression by flow cytometry. BCMA mean fluorescence intensity (MFI) on tumor cells is presented as fold increase over that observed on tumor cells incubated without RO429097. There is an observed dose dependent upregulation of BCMA. The effect of GSI on BCMA expression was then tested on primary myeloma samples from patients. CD138^+ myeloma cells were enriched from patient bone marrow samples, incubated for 3 hours in the presence of various concentrations of GSI RO429097 (0.01 μM to 10 μM) and evaluated for surface BCMA expression by flow cytometry (FIGS. 3M and 3R). BCMA mean fluorescence intensity (MFI) on tumor cells is presented as fold increase over tumor cells incubated without RO4929097.

Assay [2] concerns primary human myeloma tumor cells. Description: BCMA-specific T-ChARM T cells co-cultured with primary myeloma cells in the presence of GSI (cytokines, proliferation). In kind it is cell-based. How it is done:
(A) IL-2 production by BCMA CAR-T cells (BCMA-specific T-ChARM C11 3ST-CD28 and BCMA-specific T-ChARM C11 3ST-41BB) or control CD19sh CAR (short spacer)-T cells co-cultured with primary human myeloma tumor cells for 24 hours alone or with various concentrations of GSI RO429097 (0.003 μM to 3.0 μM).
(B) IFN-γ production by BMCA T-ChARM T cells co-cultured with myeloma cells at various concentrations of RO429097.
(O) Intracellular staining showing IFN-γ production (y-axis) and CD8 expression (x-axis) by T-ChARM T cells of the present disclosure cultured with primary MM cells from 2 patients in the absence (0 μM; left panels) or presence (1 μM; right panels) of GSI RO4929097.
(P) IFN-γ production (geometric mean fluorescence intensity (gMFI)) by T-ChARM T cells of the present disclosure cultured with primary MM cells in the presence of the indicated concentration of RO4929097 (x-axis).
(Q) IFN-γ production (normalized MFI; y-axis) by T-ChARM T cells of the present disclosure cultured with primary MM cells in the presence of the indicated concentration of RO4929097 (x-axis).
(R) Proliferation of T-ChARM T cells of the present disclosure in the presence of primary MM cells that were untreated (grey shading) or treated with 1.0 μM GSI RO4929097.
To examine the effect of a GSI on CAR T cell activity against BCMA^+ multiple myeloma, IL-2 production by BCMA CAR-T cells (BCMA-specific T-ChARM C11 3ST-CD28 and BCMA-specific T-ChARM C11 3ST-41BB) or control CD19sh CAR (short spacer)-T cells was measured after co-culture with primary human myeloma tumor cells for 24 hours in media containing at various concentrations of GSI RO429097 (0.003 μM to 3.0 μM) (FIG. 4A).
Next, the effect of GSI on T cell functionality of T cells containing a BCMA-specific T-ChARM was examined.

Assay [3] deals with MM.1R myeloma cells in NSG mice. Description: GSI activity in disseminated MM.1R xenograft model (surface BCMA, serum sBCMA). The assay is classed as in vivo, mouse. How it is done: (A) Experimental scheme for a disseminated xenograft murine myeloma model. NSG mice were irradiated (275 rad) to facilitate tumor engraftment and received human MM tumor cells (5×10^6 MM.1R) followed by GSI treatment (30 mg/kg). […] (B) Fold change in surface BCMA expression on myeloma cells in mice euthanized at the indicated timepoints following the second GSI administration. (C) Levels of sBCMA in sera from mouse sacrificed at the indicated timepoints after administration of RO4929097. To investigate whether the sBCMA-inhibiting effects of GSI RO4929097 described in Example 4 could be replicated in vivo, a mouse xenograft model of human MM was tested as illustrated in FIG. 6A. Briefly, immunodeficient NOD/SCID gamma (NSG) mice (The Jackson Laboratory) received sublethal irradiation (275 rad) at day −1, followed by 5×10^6 MM.1R cells the next day (day 0). GSI RO4929097 (30 mg/kg) was administered by oral gavage at day 19 and day 20. Mice were sacrificed at different times after the second gavage administration of the GSI and blood and bone marrow samples were taken for analysis. GSI dosing was followed by a rapid increase (>3-fold by 4 hours post-second gavage) in surface BCMA expression on the tumor cells (FIG. 6B) and a concurrent decrease in sBCMA (FIG. 6C).

Turning to `CC(C)(C(=O)NCC(F)(F)C(F)(F)F)C(=O)N[C@@H]1C(=O)Nc2ccccc2-c2ccccc21` [RO4929097], the “surface BCMA (MFI, fold increase) on primary myeloma cells” value in assay [1] (3 hours, 0.01 μM to 10 μM) is listed as “dose-dependent upregulation”. Besides, in assay [1] (primary myeloma cells, various GSI concentrations), the “levels of other cell surface molecules (CS1, CD86, PD-L1, CD80, CD38)” value is “no effect”. Moreover, the “IL-2 production by BCMA T-ChARM T cells” value in assay [2] (24 hours co-culture, GSI 0.003 μM to 3.0 μM) is given as “dose dependent increase”. Besides, in assay [2] (3 days co-culture with primary myeloma cells), the “proliferation of CFSE-labeled BCMA-specific T-ChARM T cells” value is reported as “increased in a dose dependent manner”. Also, the “IFN-γ production and CD8 expression by co-cultured T-ChARM T cells” value in assay [2] (GSI treatment of primary myeloma tumor samples) is “greatly improved”. In addition, the “IFNγ production by BCMA T-ChARM T cells” value in assay [2] (co-culture with myeloma cells, various GSI concentrations) is listed as “increased”. In addition, the “proliferation of T-ChARM T cells” value in assay [2] (primary MM cells treated with 1.0 μM GSI vs untreated) is recorded as “increased proliferation”. Also, the “GSI concentration at which effects on T-ChARM T cell IFN-γ were seen” value in assay [2] (primary myeloma tumor samples) is not below 0.1 µM. Also, in assay [3] (30 mg/kg oral gavage), the “time after second gavage within which observed effects were generally reduced” value was not above 48 h. In addition, the sBCMA in sera entry in assay [3] (30 mg/kg oral gavage day 19 and 20) was “decrease”. In addition, the “increase in surface BCMA expression on tumor cells” value in assay [3] (30 mg/kg oral gavage day 19 and 20, 4 hours post-second gavage) is recorded as more than 3 fold.
